We go through 42 compounds from patent publication US11261211B2, “19-NOR neuroactive steroids and methods of use thereof” (Sage Therapeutics, Inc., priority 2013, dated 2022).

For the first assay, the target named is α1β2γ2 GABAA receptor (Homo sapiens (Human), UniProt P14867+P47870). Put plainly: Patch clamp electrophysiology of recombinant α1β2γ2 GABAA receptors in LTK cells. The conditions noted are these: 10 μM compound, Qpatch, Ltk cells, GABA EC20 2 μM. Type of assay: cell-based. The protocol:
Cellular electrophysiology is used to measure the pharmacological properties of our GABAA receptor modulators in heterologous cell systems. Each compound is tested for its ability to affect GABA mediated currents at a submaximal agonist dose (GABA EC20=2 μM). LTK cells are stably transfected with the α1β2γ2 subunits of the GABA receptor and CHO cells are transiently transfected with the α4β3δ subunits via the Lipofecatamine method. Cells were passaged at a confluence of about 50-80% and then seeded onto 35 mm sterile culture dishes containing 2 ml culture complete medium without antibiotics or antimycotics. Confluent clusters of cells are electrically coupled (Pritchett et al., 1988). Because responses in distant cells are not adequately voltage clamped and because of uncertainties about the extent of coupling (Verdoorn et al., 1990), cells were cultivated at a density that enables the recording of single cells (without visible connections to other cells).
Whole cell currents were measured with HEKA EPC-10 amplifiers using PatchMaster software or by using the high throughput QPatch platform (Sophion). Bath solution for all experiments contained (in mM): NaCl 137 mM, KCl 4 mM, CaCl2 1.8 mM, MgCl2 1 mM, HEPES 10 mM, D-Glucose 10 mM, pH (NaOH) 7.4. In some cases 0.005% cremophor was also added. Intracellular (pipette) solution contained: KCl 130 mM, MgCl2 1 mM, Mg-ATP 5 mM, HEPES 10 mM, EGTA 5 mM, pH 7.2. During experiments, cells and solutions were maintained at room temperature (19° C.-30° C.). For manual patch clamp recordings, cell culture dishes were placed on the dish holder of the microscope and continuously perfused (1 ml/min) with bath solution. After formation of a Gigaohm seal between the patch electrodes and the cell (pipette resistance range: 2.5 MΩ-6.0 MΩ; seal resistance range: >1 GΩ) the cell membrane across the pipette tip was ruptured to assure electrical access to the cell interior (whole-cell patch-configuration). For experiments using the QPatch system, cells were transferred as suspension to the QPatch system in the bath solution and automated whole cell recordings were performed.
Cells were voltage clamped at a holding potential of −80 mV. For the analysis of test articles, GABA receptors were stimulated by 2 μM GABA after sequential pre-incubation of increasing concentrations of the test article. Pre-incubation duration was 30 s and the duration of the GABA stimulus was 2 s. Test articles were dissolved in DMSO to form stock solutions (10 mM). Test articles were diluted to 0.01, 0.1, 1, and 10 μM in bath solution. All concentrations of test articles were tested on each cell. The relative percentage potentiation was defined as the peak amplitude in response to GABA EC20 in the presence of the test article divided by the peak amplitude in response to GABA EC20 alone, multiplied by 100.
On the technique in general: Patch clamp records ionic current or voltage across a cell membrane.
Take `C[C@@]1(O)CC[C@H]2[C@@H](CC[C@@H]3[C@@H]2CC[C@]2(C)[C@@H](C(=O)Cn4ncc5ncccc54)CC[C@@H]32)C1` [SB-5]: the “α1β2γ2 GABA Qpatch in Ltk (Efficacy at 10 μm)” value was “B (“B” indicates an efficacy value of >100-500%)”. The same measure, in the same setting: next, `C[C@@]1(O)CC[C@H]2[C@@H](CC[C@@H]3[C@@H]2CC[C@]2(C)[C@@H](C(=O)Cn4ncc5ccncc54)CC[C@@H]32)C1` [SB-10]: “B (“B” indicates an efficacy value of >100-500%)”.

Staying with this assay, now noted: LTK, 10 μM compound, Qpatch, Ltk cells, GABA EC20 2 μM; read-out: α1β2γ2 GABA Qpatch in Ltk (Efficacy at 10 μm).
In the case of `CC[C@@]1(O)CC[C@H]2[C@H](CC[C@@H]3[C@@H]2CC[C@]2(C)[C@@H](C(=O)Cn4ncc5ncccc54)CC[C@@H]32)C1` [SA-111], the activity at 10 µM was more than 500%. Turning to `CC[C@@]1(O)CC[C@H]2[C@H](CC[C@@H]3[C@@H]2CC[C@]2(C)[C@@H](C(=O)Cn4nnc5cnccc54)CC[C@@H]32)C1` [SA-112], the activity at 10 µM lay in the range of 100 to 500%. Still for that read-out and setting: in the case of `CC[C@@]1(O)CC[C@H]2[C@H](CC[C@@H]3[C@@H]2CC[C@]2(C)[C@@H](C(=O)Cn4nnc5ccncc54)CC[C@@H]32)C1` [SA-113] it was 100 to 500%; in that of `CC[C@@]1(O)CC[C@H]2[C@H](CC[C@@H]3[C@@H]2CC[C@]2(C)[C@@H](C(=O)Cn4nc5ccncc5n4)CC[C@@H]32)C1` [SA-114], more than 500%; in that of `COC[C@@]1(O)CC[C@H]2[C@H](CC[C@@H]3[C@@H]2CC[C@]2(C)[C@@H](C(=O)Cn4nnc5ccccc54)CC[C@@H]32)C1` [SA-115], more than 500%. Same read-out and setting: next, `COC[C@@]1(O)CC[C@H]2[C@H](CC[C@@H]3[C@@H]2CC[C@]2(C)[C@@H](C(=O)Cn4cc5ncccc5n4)CC[C@@H]32)C1` [SA-116]: more than 500%. Regarding `COC[C@@]1(O)CC[C@H]2[C@H](CC[C@@H]3[C@@H]2CC[C@]2(C)[C@@H](C(=O)Cn4ncc5ncccc54)CC[C@@H]32)C1` [SA-117], the activity at 10 µM was more than 500%. Still for that read-out and setting: in the case of `COC[C@@]1(O)CC[C@H]2[C@H](CC[C@@H]3[C@@H]2CC[C@]2(C)[C@@H](C(=O)Cn4cc5ccncc5n4)CC[C@@H]32)C1` [SA-118] it was more than 500%. Same read-out and setting: next, `COC[C@@]1(O)CC[C@H]2[C@H](CC[C@@H]3[C@@H]2CC[C@]2(C)[C@@H](C(=O)Cn4ncc5ccncc54)CC[C@@H]32)C1` [SA-119]: more than 500%. `COC[C@@]1(O)CC[C@H]2[C@H](CC[C@@H]3[C@@H]2CC[C@]2(C)[C@@H](C(=O)Cn4nc5ccc(F)cc5n4)CC[C@@H]32)C1` [SA-122]: the activity at 10 µM fell in the range of 100 to 500%. Same read-out and setting: in the case of `COC[C@@]1(O)CC[C@H]2[C@H](CC[C@@H]3[C@@H]2CC[C@]2(C)[C@@H](C(=O)Cn4nnc5cnccc54)CC[C@@H]32)C1` [SA-123] it was 100 to 500%; in that of `COC[C@@]1(O)CC[C@H]2[C@H](CC[C@@H]3[C@@H]2CC[C@]2(C)[C@@H](C(=O)Cn4nnc5ccncc54)CC[C@@H]32)C1` [SA-124], 100 to 500%. On the same count and under the same terms, in the case of `C[C@@]1(O)CC[C@H]2[C@@H](CC[C@@H]3[C@@H]2CC[C@]2(C)[C@@H](C(=O)Cn4nnc5ccccc54)CC[C@@H]32)C1` [SB-1] it was 100 to 500%.

With `C[C@@]1(O)CC[C@H]2[C@@H](CC[C@@H]3[C@@H]2CC[C@]2(C)[C@@H](C(=O)Cn4nc5ccccc5n4)CC[C@@H]32)C1` [SB-2], the activity at 10 µM is more than 500%. Take `C[C@@]1(O)CC[C@H]2[C@@H](CC[C@@H]3[C@@H]2CC[C@]2(C)[C@@H](C(=O)Cn4nnc5cnccc54)CC[C@@H]32)C1` [SB-7]: the activity at 10 µM was in the range of 100 to 500%.

On to `C[C@@]1(O)CC[C@H]2[C@@H](CC[C@@H]3[C@@H]2CC[C@]2(C)[C@@H](C(=O)Cn4nc5ccc(F)cc5n4)CC[C@@H]32)C1` [SB-11], for which the activity at 10 µM is 100 to 500%. The same measure, in the same setting: next, `C[C@]12CC[C@H]3[C@@H](CC[C@H]4C[C@@](O)(CF)CC[C@@H]43)[C@@H]1CC[C@@H]2C(=O)Cn1nnc2ccccc21` [SB-12]: 100 to 500%; `C[C@]12CC[C@H]3[C@@H](CC[C@H]4C[C@@](O)(CF)CC[C@@H]43)[C@@H]1CC[C@@H]2C(=O)Cn1nc2ccccc2n1` [SB-13]: 100 to 500%; `C[C@]12CC[C@H]3[C@@H](CC[C@H]4C[C@@](O)(CF)CC[C@@H]43)[C@@H]1CC[C@@H]2C(=O)Cn1nnc2cnccc21` [SB-14]: 10 to 100%. Same read-out and setting: in the case of `C[C@]12CC[C@H]3[C@@H](CC[C@H]4C[C@@](O)(CF)CC[C@@H]43)[C@@H]1CC[C@@H]2C(=O)Cn1cc2ncccc2n1` [SB-16] it was 100 to 500%; in that of `C[C@]12CC[C@H]3[C@@H](CC[C@H]4C[C@@](O)(CF)CC[C@@H]43)[C@@H]1CC[C@@H]2C(=O)Cn1ncc2ncccc21` [SB-17], 10 to 100%; in that of `C[C@]12CC[C@H]3[C@@H](CC[C@H]4C[C@@](O)(CF)CC[C@@H]43)[C@@H]1CC[C@@H]2C(=O)Cn1cc2ccncc2n1` [SB-18], more than 500%.

In the case of `C[C@]12CC[C@H]3[C@@H](CC[C@H]4C[C@@](O)(CF)CC[C@@H]43)[C@@H]1CC[C@@H]2C(=O)Cn1ncc2ccncc21` [SB-19], the activity at 10 µM was in the range of 100 to 500%. On the same count and under the same terms, next, `C[C@]12CC[C@H]3[C@@H](CC[C@H]4C[C@@](O)(CF)CC[C@@H]43)[C@@H]1CC[C@@H]2C(=O)Cn1nnc2ccncc21` [SB-26]: 10 to 100%; `CC[C@@]1(O)CC[C@H]2[C@@H](CC[C@@H]3[C@@H]2CC[C@]2(C)[C@@H](C(=O)Cn4cc5ncccc5n4)CC[C@@H]32)C1` [SB-29]: 100 to 500%.

As to `CC[C@@]1(O)CC[C@H]2[C@@H](CC[C@@H]3[C@@H]2CC[C@]2(C)[C@@H](C(=O)Cn4ncc5ncccc54)CC[C@@H]32)C1` [SB-30], the activity at 10 µM lay within 100 to 500%.

Take `CC[C@@]1(O)CC[C@H]2[C@@H](CC[C@@H]3[C@@H]2CC[C@]2(C)[C@@H](C(=O)Cn4ncc5ccncc54)CC[C@@H]32)C1` [SB-32]: the activity at 10 µM lay within 100 to 500%.

Regarding `CC[C@@]1(O)CC[C@H]2[C@@H](CC[C@@H]3[C@@H]2CC[C@]2(C)[C@@H](C(=O)Cn4nc5ccncc5n4)CC[C@@H]32)C1` [SB-34], the activity at 10 µM is more than 500%. The same measure, in the same setting: in the case of `CC[C@@]1(O)CC[C@H]2[C@@H](CC[C@@H]3[C@@H]2CC[C@]2(C)[C@@H](C(=O)Cn4nnc5ccccc54)CC[C@@H]32)C1` [SB-35] it was 10 to 100%; in that of `CC[C@@]1(O)CC[C@H]2[C@@H](CC[C@@H]3[C@@H]2CC[C@]2(C)[C@@H](C(=O)Cn4nc5ccccc5n4)CC[C@@H]32)C1` [SB-36], 100 to 500%; in that of `CC[C@@]1(O)CC[C@H]2[C@@H](CC[C@@H]3[C@@H]2CC[C@]2(C)[C@@H](C(=O)Cn4nc5ccc(F)cc5n4)CC[C@@H]32)C1` [SB-39], 10 to 100%. Turning to `COC[C@@]1(O)CC[C@H]2[C@@H](CC[C@@H]3[C@@H]2CC[C@]2(C)[C@@H](C(=O)Cn4nc5ccc(F)cc5n4)CC[C@@H]32)C1` [SB-41], the activity at 10 µM lay within 10 to 100%. On the same count and under the same terms, next, `COC[C@@]1(O)CC[C@H]2[C@@H](CC[C@@H]3[C@@H]2CC[C@]2(C)[C@@H](C(=O)Cn4nnc5cnccc54)CC[C@@H]32)C1` [SB-43]: 100 to 500%; `COC[C@@]1(O)CC[C@H]2[C@@H](CC[C@@H]3[C@@H]2CC[C@]2(C)[C@@H](C(=O)Cn4nc5ccncc5n4)CC[C@@H]32)C1` [SB-44]: more than 500%. Still for that read-out and setting: in the case of `COC[C@@]1(O)CC[C@H]2[C@@H](CC[C@@H]3[C@@H]2CC[C@]2(C)[C@@H](C(=O)Cn4ncc5ccncc54)CC[C@@H]32)C1` [SB-46] it was 100 to 500%; in that of `COC[C@@]1(O)CC[C@H]2[C@@H](CC[C@@H]3[C@@H]2CC[C@]2(C)[C@@H](C(=O)Cn4cc5ncccc5n4)CC[C@@H]32)C1` [SB-47], more than 500%; in that of `COC[C@@]1(O)CC[C@H]2[C@@H](CC[C@@H]3[C@@H]2CC[C@]2(C)[C@@H](C(=O)Cn4ncc5ncccc54)CC[C@@H]32)C1` [SB-48], more than 500%. Still for that read-out and setting: in the case of `COC[C@@]1(O)CC[C@H]2[C@@H](CC[C@@H]3[C@@H]2CC[C@]2(C)[C@@H](C(=O)Cn4nnc5ccccc54)CC[C@@H]32)C1` [SB-49] it was 100 to 500%; in that of `CCOC[C@@]1(O)CC[C@H]2[C@@H](CC[C@@H]3[C@@H]2CC[C@]2(C)[C@@H](C(=O)Cn4nnc5ccccc54)CC[C@@H]32)C1` [SB-52], 100 to 500%; in that of `CCOC[C@@]1(O)CC[C@H]2[C@@H](CC[C@@H]3[C@@H]2CC[C@]2(C)[C@@H](C(=O)Cn4nc5ccccc5n4)CC[C@@H]32)C1` [SB-53], 10 to 100%.
